Source: patent US20240116892A1, “HETEROCYCLIC AMIDE AND UREA COMPOUNDS AS JAK2 INHIBITORS” (Ajax Therapeutics, Inc., priority 2022, published 2024)

Biological target: JAK2 (JH1 domain-catalytic, Y1007F, Y1008F) kinase (Homo sapiens (Human), UniProt O60674, Y1007F/Y1008F)
Assay: JAK2 JH1 Domain Binding Assay
Details: qPCR readout
Protocol: JAK2 (JH1 domain-catalytic, Y1007F, Y1008F) kinase was expressed as N-terminal fusion to the DNA binding domain of NFkB in transiently transfected HEK293 cells and subsequently tagged with DNA for qPCR detection. Streptavidin-coated magnetic beads were treated with biotinylated small molecule ligands for 30 minutes at room temperature to generate affinity resins for kinase assays. The liganded beads were blocked with excess biotin and washed with blocking buffer (SeaBlock (Pierce), 1% BSA, 0.05% Tween 20, 1 mmol/L DTT) to remove unbound ligand and to reduce nonspecific phage binding. Binding reactions were assembled by combining kinases, liganded affinity beads, and test compounds in 1× binding buffer (1× PBS, 0.05% Tween 20, 0.1% BSA, 1 mmol/L DTT). Test compound was prepared as 111× stocks in 100% DMSO and directly diluted into the assay wells. All reactions were performed in polypropylene 384-well plates in a final volume of 0.02 mL. The assay plates were incubated at room temperature with shaking for 1 hour and the affinity beads were washed with wash buffer (1× PBS, 0.05% Tween 20). The beads were then re-suspended in elution buffer (1× PBS, 0.05% Tween 20, 0.5 μmol/L non-biotinylated affinity ligand) and incubated at room temperature with shaking for 30 minutes. The kinase concentration in the eluate was measured by qPCR.

Chain of JAK2 (JH1 domain-catalytic, Y1007F, Y1008F) kinase (O60674 849-1124 Y1007F/Y1008F): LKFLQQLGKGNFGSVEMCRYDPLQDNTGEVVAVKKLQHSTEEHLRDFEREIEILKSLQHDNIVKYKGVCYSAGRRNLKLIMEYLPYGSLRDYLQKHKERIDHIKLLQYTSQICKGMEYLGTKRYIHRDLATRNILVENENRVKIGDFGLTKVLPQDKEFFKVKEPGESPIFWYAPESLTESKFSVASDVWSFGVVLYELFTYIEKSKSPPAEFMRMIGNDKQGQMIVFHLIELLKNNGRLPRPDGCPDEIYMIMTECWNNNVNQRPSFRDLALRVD

Row | Kd [nM] | Compound
1 | < 10 | Cc1n[nH]c2ncc(N3CCC(N(C)C(=O)Nc4cc(C(F)(F)F)cn(C)c4=O)C(F)(F)C3)cc12 (single isomer, unassigned) [Example I-36-b, (S)- or (R)-1-(3,3-difluoro-1-(3-methyl-1H-pyrazolo[3,4-b]pyridin-5-yl)piperidin-4-yl)-1-methyl-3-(1-methyl-2-oxo-5-(trifluoromethyl)-1,2-dihydropyridin-3-yl)urea]
2 | < 10 | Cc1cc2nc(N3CCC(N(C)C(=O)Nc4cc(C(F)(F)F)cn(C)c4=O)C(F)(F)C3)cnc2[nH]1 (single isomer, unassigned) [Example I-37-a, (R)- or (S)-1-(3,3-difluoro-1-(6-methyl-5H-pyrrolo[2,3-b]pyrazin-2-yl)piperidin-4-yl)-1-methyl-3-(1-methyl-2-oxo-5-(trifluoromethyl)-1,2-dihydropyridin-3-yl)urea]
3 | < 10 | Cc1cc2nc(N3CCC(N(C)C(=O)Nc4cc(C(F)(F)F)cn(C)c4=O)C(F)(F)C3)cnc2[nH]1 (single isomer, unassigned) [Example I-37-b, (S)- or (R)-1-(3,3-difluoro-1-(6-methyl-5H-pyrrolo[2,3-b]pyrazin-2-yl)piperidin-4-yl)-1-methyl-3-(1-methyl-2-oxo-5-(trifluoromethyl)-1,2-dihydropyridin-3-yl)urea]
4 | 1000 to 5000 | CN(C(=O)Nc1cc(C(F)(F)F)cn(C)c1=O)C1CCCN(c2cnc3[nH]ccc3n2)CC1 (single isomer, unassigned) [Example I-41-a, (R)- or (S)-1-(1-(5H-pyrrolo[2,3-b]pyrazin-2-yl)azepan-4-yl)-1-methyl-3-(1-methyl-2-oxo-5-(trifluoromethyl)-1,2-dihydropyridin-3-yl)urea]
5 | 50 to 1000 | CN(C(=O)Nc1cc(C(F)(F)F)cn(C)c1=O)C1CCCN(c2cnc3[nH]ccc3n2)CC1 (single isomer, unassigned) [Example I-41-b, (S)- or (R)-1-(1-(5H-pyrrolo[2,3-b]pyrazin-2-yl)azepan-4-yl)-1-methyl-3-(1-methyl-2-oxo-5-(trifluoromethyl)-1,2-dihydropyridin-3-yl)urea]
6 | 10 to 50 | CN(C(=O)Nc1cc(C(F)(F)F)cn(C)c1=O)[C@@H]1C[C@@H]2C[C@H]1CN2c1cnc(NC(=O)C2CC2)cn1 (single isomer, unassigned) [Example I-44-a]
7 | 10 to 50 | CN(C(=O)Nc1cc(C(F)(F)F)cn(C)c1=O)[C@H]1C[C@H]2C[C@@H]1CN2c1cnc(NC(=O)C2CC2)cn1 (single isomer, unassigned) [Example I-44-b]
8 | < 10 | CN(C(=O)Nc1cc(C(F)(F)F)cn(C)c1=O)[C@H]1CCN(c2cnc3[nH]ncc3c2)CC1(C)C (single isomer, unassigned) [Example I-45-a]
9 | 10 to 50 | CN(C(=O)Nc1cc(C(F)(F)F)cn(C)c1=O)[C@@H]1CCN(c2cnc3[nH]ncc3c2)CC1(C)C (single isomer, unassigned) [Example I-45-b]
10 | < 10 | CN(C(=O)Nc1cc(C(F)(F)F)cn(C)c1=O)C1CCN(c2cnc3[nH]ccc3n2)CC1(C)C (single isomer, unassigned) [Example I-49-a, (R)- or (S)-1-(3,3-dimethyl-1-(5H-pyrrolo[2,3-b]pyrazin-2-yl)piperidin-4-yl)-1-methyl-3-(1-methyl-2-oxo-5-(trifluoromethyl)-1,2-dihydropyridin-3-yl)urea]
11 | < 10 | CN(C(=O)Nc1cc(C(F)(F)F)cn(C)c1=O)C1CCN(c2cnc3[nH]ccc3n2)CC1(C)C (single isomer, unassigned) [Example I-49-b, (S)- or (R)-1-(3,3-dimethyl-1-(5H-pyrrolo[2,3-b]pyrazin-2-yl)piperidin-4-yl)-1-methyl-3-(1-methyl-2-oxo-5-(trifluoromethyl)-1,2-dihydropyridin-3-yl)urea]
12 | 50 to 1000 | C[C@@H]1CN(C(=O)Nc2cc(C(F)(F)F)cn(C)c2=O)C2(CCN(c3cnc4[nH]ccc4n3)CC2)C1 (single isomer, unassigned) [Example I-53-a]
13 | 50 to 1000 | C[C@H]1CN(C(=O)Nc2cc(C(F)(F)F)cn(C)c2=O)C2(CCN(c3cnc4[nH]ccc4n3)CC2)C1 (single isomer, unassigned) [Example I-53-b]
14 | 50 to 1000 | CC1CN(C(=O)Nc2cc(C(F)(F)F)cn(C)c2=O)C2(CCN(c3cnc4[nH]cc(F)c4n3)CC2)C1 (single isomer, unassigned) [Example I-54-a]
15 | 50 to 1000 | CC1CN(C(=O)Nc2cc(C(F)(F)F)cn(C)c2=O)C2(CCN(c3cnc4[nH]cc(F)c4n3)CC2)C1 (single isomer, unassigned) [Example I-54-b]
16 | 50 to 1000 | C[C@@H]1CN(C(=O)Nc2cc(C(F)(F)F)cn(C)c2=O)C2(CCN(c3cnc4[nH]cc(C#N)c4n3)CC2)C1 (single isomer, unassigned) [Example I-60-a]
17 | 50 to 1000 | C[C@H]1CN(C(=O)Nc2cc(C(F)(F)F)cn(C)c2=O)C2(CCN(c3cnc4[nH]cc(C#N)c4n3)CC2)C1 (single isomer, unassigned) [Example I-60-b]

Row | Kd [nM] | Compound
18 | < 10 | CN(C(=O)Nc1cc(C(F)(F)F)cn(C)c1=O)[C@@H]1CCN(c2cnc3[nH]ccc3n2)C[C@H]1F (single isomer, unassigned) [Example I-63-a]
19 | < 10 | CN(C(=O)Nc1cc(C(F)(F)F)cn(C)c1=O)[C@H]1CCN(c2cnc3[nH]ccc3n2)C[C@@H]1F (single isomer, unassigned) [Example I-63-b]
20 | < 10 | CN(C(=O)Nc1cc(C(F)(F)F)cn(C)c1=O)[C@@H]1CC=C(c2cnc3[nH]ccc3n2)CC1 (single isomer, unassigned) [Example I-82-a]
21 | < 10 | CN(C(=O)Nc1cc(C(F)(F)F)cn(C)c1=O)[C@H]1CC=C(c2cnc3[nH]ccc3n2)CC1 (single isomer, unassigned) [Example I-82-b]
22 | < 10 | CN1CCC(c2n[nH]c3ncc(N4CC[C@H](N(C)C(=O)Nc5cc(C(F)(F)F)cn(C)c5=O)C(F)(F)C4)cc23)CC1 (single isomer, unassigned) [Example I-122-a]
23 | < 10 | CN1CCC(c2n[nH]c3ncc(N4CC[C@@H](N(C)C(=O)Nc5cc(C(F)(F)F)cn(C)c5=O)C(F)(F)C4)cc23)CC1 (single isomer, unassigned) [Example I-122-b]
24 | < 10 | CC(=O)N1CCC(c2n[nH]c3ncc(N4CC[C@@H](N(C)C(=O)Nc5cc(C(F)(F)F)cn(C)c5=O)C(F)(F)C4)cc23)CC1 (single isomer, unassigned) [Example I-123-a]
25 | < 10 | CC(=O)N1CCC(c2n[nH]c3ncc(N4CC[C@H](N(C)C(=O)Nc5cc(C(F)(F)F)cn(C)c5=O)C(F)(F)C4)cc23)CC1 (single isomer, unassigned) [Example I-123-b]
26 | < 10 | CN1CCN(c2n[nH]c3ncc(N4CC[C@@H](N(C)C(=O)Nc5cc(C(F)(F)F)cn(C)c5=O)C(F)(F)C4)cc23)CC1 (single isomer, unassigned) [Example I-154-a, (R)- or (S)-1-(3,3-difluoro-1-(3-(4-methylpiperazin-1-yl)-1H-pyrazolo[3,4-b]pyridin-5-yl)piperidin-4-yl)-1-methyl-3-(1-methyl-2-oxo-5-(trifluoromethyl)-1,2-dihydropyridin-3-yl)urea]
27 | < 10 | CN1CCN(c2n[nH]c3ncc(N4CC[C@H](N(C)C(=O)Nc5cc(C(F)(F)F)cn(C)c5=O)C(F)(F)C4)cc23)CC1 (single isomer, unassigned) [Example I-154-b, (R)- or (S)-1-(3,3-difluoro-1-(3-(4-methylpiperazin-1-yl)-1H-pyrazolo[3,4-b]pyridin-5-yl)piperidin-4-yl)-1-methyl-3-(1-methyl-2-oxo-5-(trifluoromethyl)-1,2-dihydropyridin-3-yl)urea]
28 | 10 to 50 | CN(C(=O)Nc1cc(C(F)(F)F)cn(C)c1=O)[C@@H]1CCN(c2cnc3[nH]cc(N4CCOCC4)c3n2)CC1(F)F (single isomer, unassigned) [Example I-155-a]
29 | 10 to 50 | CN(C(=O)Nc1cc(C(F)(F)F)cn(C)c1=O)[C@H]1CCN(c2cnc3[nH]cc(N4CCOCC4)c3n2)CC1(F)F (single isomer, unassigned) [Example I-155-b]
30 | < 10 | CN(C(=O)Nc1cc(C(F)(F)F)cn(C)c1=O)[C@@H]1CC=C(c2cnc3[nH]ncc3n2)CC1 (single isomer, unassigned) [Example I-160-a, (S)- or (R)-1-(4-(1H-pyrazolo[3,4-b]pyrain-5-yl)cyclohex-3-en-1-yl)-1-methyl-3-(2-methyl-2-oxo-5-(trifluoromethyl)-1,2-dihydropyridin-3-yl)urea]
31 | < 10 | CN(C(=O)Nc1cc(C(F)(F)F)cn(C)c1=O)[C@H]1CC=C(c2cnc3[nH]ncc3n2)CC1 (single isomer, unassigned) [Example I-160-b, (S)- or (R)-1-(4-(1H-pyrazolo[3,4-b]pyrain-5-yl)cyclohex-3-en-1-yl)-1-methyl-3-(2-methyl-2-oxo-5-(trifluoromethyl)-1,2-dihydropyridin-3-yl)urea]
32 | 10 to 50 | COc1n[nH]c2ncc(N3CC[C@H]4[C@H](C3)OCCN4C(=O)Nc3cc(C(F)(F)F)cn(C)c3=O)cc12 (single isomer, unassigned) [Example I-169-a]
33 | < 10 | COc1n[nH]c2ncc(N3CC[C@H]4[C@H](C3)OCCN4C(=O)Nc3cc(C(F)(F)F)cn(C)c3=O)cc12 (single isomer, unassigned) [Example I-169-b]
